The source of these data is US9862678B2, “3,4-diaminobenzenesulfonamide derivatives for inhibiting cell death” (VIB VZW, priority 2014, dated 2018).

For orientation: IC50 means the concentration at which inhibition is half-maximal. Low readings indicate higher potency, high ones lower potency. A word on the solubility: it is the dissolved amount per volume that the medium holds.

Series [1] relates to IMR-32 neuroblastoma cell line. The experiment in a line: Inhibition of erastin-induced ferroptosis in IMR-32 cells (Sytox Green cell death readout). It is filed as cell-based. Conditions: Homo sapiens; inhibiting ferroptosis in the IMR-32 neuroblastoma cell line stimulated with 10 μM erastin; compounds 1 nM to 1 μM, triplicate. How it is done: In the present disclosure, the potency of a compound inhibiting (or reducing) ferroptosis and/or oxytosis are determined in in vitro or in vivo assays. Typically in vitro assays are used to measure the potency of a candidate compound. Examples of suitable in vitro assays are cellular assays. One non-limiting example of an assay involves the use of the IMR-32 neuroblastoma cell line. The latter is stimulated to enter into ferroptosis upon stimulation with 10 μM erastin, a documented ferroptosis inducer (see, for example, Dixon et al. (2012) Cell 149, 1060-1072, and ferroptosis inhibitors are evaluated for the prevention of erastin-induced ferroptosis. Yet another assay is based the glutamate-induced cell death in the hippocampal cell line HT22 and ferroptosis/oxytosis inhibitors are evaluated for the prevention of cell death (see N. Henke et al. (2013) Cell Death and Disease 4, e470). Still another assay is based on the sorafinib-induced cell death (described to be iron dependent cell death) in hepatocellular carcinoma cells and ferroptosis inhibitors are evaluated for the prevention of cell death (see C. Louandre et al. (2013) Int. J. Cancer 133, 1732). The calculated potency of a compound inhibiting ferroptosis and/or oxytosis is typically depicted as an IC50 value. Examples of suitable in vivo assays are typically pre-clinical disease models of, for example, mice for the diseases benefiting the application of ferroptosis and/or oxytosis inhibitors, as described herein. One non-limiting example of an in vivo assay is based on inducing liver damage in mice by administering the herbicide diquat dibromide monohydrate and ferroptosis inhibitors are evaluated based on reduced levels of liver transaminases in serum (see Q. Ran et al. (2004) J. Biol. Chem. 279, 53, 55137).
The IC50 values for the individual compounds of the disclosure were determined in the neuroblastoma, IMR-32 cell line. In brief, IMR-32 cells were subjected to 10 μM erastin, the latter compound is known to induce ferroptosis. A concentration gradient (ranging from 1 nM to 1 μM) of the compounds was applied to the cells. These experiments were performed in a 96-well format (in triplicate), and cell death was analyzed in a fluorescent plate reader by use of a fluorescent cell death dye (1.5 μM Sytox Green). The IC50 values depicted in Table 1 are the concentration values for the individual compounds which are able to overcome ferroptosis.

The nature of series [2]: Kinetic solubility (turbidity). It is filed as physicochemical. Conditions: kinetic solubility by turbidity, test range 3.125 μM to 200 μM, 10 mM PBS pH 7.4. Here is the method: (§1) Unless otherwise stated, laboratory reagent grade solvents were used. Reagents were obtained from Sigma-Aldrich, Acros Organics or Fluorochem and were used without further purification. Characterization of all compounds was done with ^1H and ^13C NMR and mass spectrometry. ^1H and ^13C NMR spectra were recorded on a 400 MHz Bruker Avance III Nanobay spectrometer with Ultrashield and analyzed by use of MestReNova analytical chemistry software. Chemical shifts are in ppm, and coupling constants are in hertz (Hz). ES mass spectra were obtained from an Esquire 3000 plus ion trap mass spectrometer from Bruker Daltonics. Purities were determined with two diverse HPLC systems based either on mass determination or on UV detection. A Waters acquity UPLC system coupled to a Waters TQD ESI mass spectrometer or a Waters SQD ESI mass spectrometer was used both in combination with a Waters TUV detector. Water (A) and CH3CN (B) were used as eluents. LC-MS spectra were recorded on an Agilent 1100 series HPLC system using a Alltech Prevail C18 column (2.1 mm×50 mm, 3 μm) coupled with an Esquire 3000 plus as MS detector, and a “method A” 5-100% B, 20 min gradient was used with a flow rate of 0.2 mL/min. Formic acid, 0.1%, was added to solvents A and B. Waters Acquity UPLC BEH C18 1.7 μm, 2.1 mm×50 mm column was used. Solvent A consisted of water with 0.1% formic acid. Solvent B consisted of acetonitrile with 0.1% formic acid. Method I involved the following: 0.15 min 95% A, 5% B, then in 1.85 min from 95% A, 5% B to 95% B, 5% A, then 0.25 min (0.350 mL/min), 95% B, 5% A. The wavelength for UV detection was 254 nm. Method II involved the following: flow 0.4 mL/min, 0.25 min 95% A, 5% B, then in 4.75 min to 95% B, 5% A, then 0.25 min 95% B, 5% A, followed by 0.75 min 95% A, 5% B. The wavelength for UV detection was 214 nm. Where necessary, flash purification was performed on a Biotage ISOLERA One flash system equipped with an internal variable dual wavelength diode array detector (200-400 nm). For normal phase purifications SNAP cartridges (10-340 g, flow rate of 10-100 mL/min) were used, and reversed phase purifications were done making use of KP-C18 containing cartridges. Dry sample loading was done by self-packing samplet cartridges using silica and Celite 545, respectively, for normal and reversed phase purifications. Gradients used varied for each purification. Mouse and rat plasma came from Innovative Research. The turbidity in the kinetic solubility experiments was measured using the UV/vis spectrophotometer Synergy MX, Biotek with Gen5.

Series [3] in a line: Microsomal stability, human microsomes. Here is the method:
(§2) In a next step a subset of compounds was subjected to ADME analysis. Thereto the metabolism by murine and human microsomes of representative compounds of the disclosure was measured. The compound ferrostatin-1 (Fer-1, described in S. J. Dixon et al. (2012) Cell 149, 1060-1072), originally described to inhibit ferroptosis, was used a control. In addition, the plasma stability in murine and human plasma was measured. The percentage of remaining compounds was measured by LC-MS.

A short description of series [4]: Microsomal stability, murine microsomes. How it is done: as §2
The nature of series [5]: Plasma stability, human plasma. It is filed as in vitro ADME. Conditions: for recovery at 6 h: human.
Experimental: Thereto the metabolism by murine and human microsomes of representative compounds of the disclosure was measured. […] In addition, the plasma stability in murine and human plasma was measured. The percentage of remaining compounds was measured by LC-MS.
Series [6] can be described thus: Plasma stability, murine plasma. It is filed as in vitro ADME, mouse. The settings on record: for recovery at 6 h: mouse. Here is the method:
as §1

Where [7] appears, read: aqueous buffer, kinetic from dmso stock.
The mark [8] stands for this setting: human microsomes (CYP450 and other NADPH-dependent enzymes).
[9] abbreviates: mouse microsomes (CYP450 and other NADPH-dependent enzymes).

`CCNS(=O)(=O)c1ccc(NC2CCCCC2)c(N)c1` [Compound 22, 3-amino-4-(cyclohexylamino)-N-ethylbenzenesulfonamide] yielded a half-maximal inhibitory concentration (IC50) in series [1] of 67 nM. In series [2] (setting [7]), the solubility lay within 12.5 to 25 µM. Besides, the “Microsomal stability Half-life (t1/2) (min) Human” value in series [3] (human, microsomes) amounted to 37 ± 3 min. Besides, in series [4] (mouse, microsomes), the “Microsomal stability Half-life (t1/2) (min) Mouse” value stood at 31 ± 5 min. Moreover, the recovery at 6 h in series [5] worked out at 81.9%; in series [6], 86.2%.

Regarding `CN1CCN(S(=O)(=O)c2ccc(NC3CCCCC3)c(N)c2)CC1` [Compound 31, N1-cyclohexyl-4-((4-methylpiperazin-1-yl)sulfonyl)benzene-1,2-diamine], the 50% inhibitory concentration (IC50) in series [1] is 206 nM. Further, the solubility in series [2] (setting [7]) is greater than 200 µM.

Turning to `Nc1cc(S(=O)(=O)N2CCOCC2)ccc1NC1CCCCC1` [Compound 32, N1-cyclohexyl-4-(morpholinosulfonyl)benzene-1,2-diamine], the half-inhibitory concentration (IC50) in series [1] is 208 nM. Besides, the solubility in series [2] (setting [7]) is greater than 200 µM.

`CCNS(=O)(=O)c1ccc(NC2CCCCC2)c(NCc2ccccc2)c1` [Compound 37, 3-(benzylamino)-4-(cyclohexylamino)-N-ethylbenzenesulfonamide] returned a half-maximal inhibitory concentration (IC50) in series [1] of 4 nM. Besides, the solubility in series [2] (setting [7]) fell in the range of 12.5 to 25 µM. Besides, the “Microsomal stability Half-life (t1/2) (min) Human” value in series [3] (human, microsomes) came to 88 ± 16 min. Besides, in series [4] (mouse, microsomes), the “Microsomal stability Half-life (t1/2) (min) Mouse” value was 187 ± 41 min. In addition, the figures for the recovery at 6 h in series [5] and in series [6] were 100% and 98.6%, respectively.

`CCNS(=O)(=O)c1ccc(NC2CCCCC2)c(NCc2cncnc2)c1` [Compound 39, 4-(cyclohexylamino)-N-ethyl-3-((pyrimidin-5-ylmethyl)amino)benzenesulfonamide] showed an IC50 in series [1] of 187 nM. In addition, the solubility in series [2] (setting [7]) lay within 100 to 200 µM.

With `CCNS(=O)(=O)c1ccc(NC2C3CC4CC(C3)CC2C4)c(NCc2ccccc2)c1` (centres unmarked) [Compound 44, 4-(adamantan-2-ylamino)-3-(benzylamino)-N-ethylbenzenesulfonamide], the IC50 in series [1] was determined as 3.5 nM. The solubility in series [2] (setting [7]) fell in the range of 12.5 to 25 µM. Further, the “Microsomal stability Half-life (t1/2) (min) Human” value in series [3] (human, microsomes) is 36 ± 11 min. In addition, in series [4] (mouse, microsomes), the “Microsomal stability Half-life (t1/2) (min) Mouse” value came out at 31 ± 6 min. Further, the recovery at 6 h amounted to 100% in series [5] and 99.4% in series [6].

In turn, `CCNS(=O)(=O)c1ccc(NC2C3CC4CC(C3)CC2C4)c(NCc2ccncc2)c1` (centres unmarked) [Compound 45, 4-(adamantan-2-ylamino)-N-ethyl-3-((pyridin-4-ylmethyl)amino)benzenesulfonamide] had an IC50 in series [1] of 3.9 nM. The solubility in series [2] (setting [7]) lay in the range of 12.5 to 25 µM. In addition, in series [3] (setting [8]), the “Microsomal stability Half-life (t1/2) (min) Human” value is given as 64 ± 10 min. Moreover, the “Microsomal stability Half-life (t1/2) (min) Mouse” value in series [4] (setting [9]) is recorded as 26 ± 5 min. Moreover, the recovery at 6 h in series [5] and in series [6] was 100% throughout.

In series [1], `CN1CCN(S(=O)(=O)c2ccc(NC3CCCCC3)c(NCc3ccccc3)c2)CC1` [Compound 56, N2-benzyl-N1-cyclohexyl-4-((4-methylpiperazin-1-yl)sulfonyl)benzene-1,2-diamine] had an IC50 of 33 nM. Further, in series [2] (setting [7]), the solubility was 25 to 50 µM.

The molecule `O=S(=O)(c1ccc(NC2CCCCC2)c(NCc2ccccc2)c1)N1CCOCC1` [Compound 57, N2-benzyl-N1-cyclohexyl-4-(morpholinosulfonyl)benzene-1,2-diamine] displayed an IC50 in series [1] of 30 nM. Besides, the solubility in series [2] (setting [7]) fell in the range of 25 to 50 µM.

On to `O=S(=O)(NCCO)c1ccc(NC2CCCCC2)c(NCc2ccccc2)c1` [Compound 58, 3-(benzylamino)-4-(cyclohexylamino)-N-(2-hydroxyethyl)benzenesulfonamide], for which inhibition in series [1] was half-maximal at 14 nM (IC50). Further, the solubility in series [2] (setting [7]) lay within 100 to 200 µM.

Turning to `CCOC(=O)c1ccc(NC2CCCCC2)c(N)c1` [Fer-1, ferrostatin-1, reference compound], in series [2], the solubility is on record as greater than 200 µM. In series [3] (setting [8]), the “Microsomal stability Half-life (t1/2) (min) Human” value is reported as 6.9 ± 0.2 min. Further, the “Microsomal stability Half-life (t1/2) (min) Mouse” value in series [4] (setting [9]) is reported as 1.9 ± 0.6 min. The “Plasma stability % recovery after 6 h Human” value in series [5] (human plasma, 6 h, percentage of remaining parent compound, LC-MS) worked out at 100%. Moreover, the “Plasma stability % recovery after 6 h Mouse” value in series [6] (mouse plasma, 6 h, percentage of remaining parent compound, LC-MS) is 0%.
